Source: patent publication US20250230193A1, “CYCLIC COMPOUND HAVING SELECTIVE KRAS INHIBITORY EFFECT ON HRAS AND NRAS” (CHUGAI SEIYAKU KABUSHIKI KAISHA, priority 2022, published 2025)
Where a SMILES comes first, the peptide text is derived from it. Bridges are numbered along the chain shown (N, C = ends). [ ]: non-standard residue; d: D form. The star is where a group is joined. hPhe(3-Cl-4-CF3) = N[C@@H](CCc1ccc(C(F)(F)F)c(Cl)c1)C(=O)O; NPrPhe(4-CF3) = CCCN[C@@H](Cc1ccc(C(F)(F)F)cc1)C(=O)O; NMeGly(cPent) = CN[C@H](C(=O)O)C1CCCC1; NMeD = CN[C@@H](CC(=O)O)C(=O)O; NMeL = CN[C@@H](CC(C)C)C(=O)O; NEtAla = CCN[C@@H](C)C(=O)O; Azetidin(1-yl) = C1CN(*)C1; Morpholide = C1CN(*)CCO1; NMeA = CN[C@@H](C)C(=O)O; Piperidide = C1CCN(*)CC1; Pyrrolidide = C1CCN(*)C1; Ac5c = NC1(C(=O)O)CCCC1; Aze = O=C(O)[C@@H]1CCN1; Sar = CNCC(=O)O

Assays:
[1] = target: GDP-bound HRAS wild-type protein (Homo sapiens, UniProt P01112); assay: Binding to HRAS by surface plasmon resonance (SPR), Single Cycle Kinetics; details: KD ratio HRAS/KRAS, SPR
[2] = target: GDP-bound NRAS wild-type protein (Homo sapiens, UniProt P01111); assay: Binding to NRAS by surface plasmon resonance (SPR), Single Cycle Kinetics; details: KD ratio NRAS/KRAS, SPR
Sequence of GDP-bound NRAS wild-type protein (P01111 whole entry): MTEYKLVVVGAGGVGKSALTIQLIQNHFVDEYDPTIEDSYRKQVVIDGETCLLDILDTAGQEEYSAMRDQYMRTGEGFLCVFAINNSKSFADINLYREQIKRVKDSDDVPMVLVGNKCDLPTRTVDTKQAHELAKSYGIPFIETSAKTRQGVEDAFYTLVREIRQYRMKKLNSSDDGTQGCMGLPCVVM

Sequence of GDP-bound HRAS wild-type protein (P01112 whole entry): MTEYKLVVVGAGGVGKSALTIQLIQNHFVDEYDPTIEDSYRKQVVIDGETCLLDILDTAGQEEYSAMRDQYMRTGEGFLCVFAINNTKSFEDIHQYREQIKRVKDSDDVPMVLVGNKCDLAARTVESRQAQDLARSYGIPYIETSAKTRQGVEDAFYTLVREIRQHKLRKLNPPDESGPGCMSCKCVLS

Row | SMILES | HRAS/KRAS (ratio of KD for GDP-bound HRAS wild-type to KD for KRAS) [1] | NRAS/KRAS (ratio of KD for GDP-bound NRAS wild-type to KD for KRAS) [2]
1 | CCCN1C(=O)[C@@H]2CCN2C(=O)[C@H](C)N(CC)C(=O)[C@H]([C@@H](C)CC)NC(=O)[C@H](CC(C)C)N(C)C(=O)C[C@@H](C(=O)N2CCOCC2)N(C)C(=O)[C@H](C2CCCC2)N(C)C(=O)C2(CCCC2)NC(=O)[C@@H]2CCCN2C(=O)[C@H](CCc2ccc(C(F)(F)F)c(Cl)c2)NC(=O)CN(C)C(=O)[C@@H]1Cc1ccc(C(F)(F)F)cc1 [PP0152] ([NMeL]I[NEtAla][Aze][NPrPhe(4-CF3)][Sar][hPhe(3-Cl-4-CF3)]P[Ac5c][NMeGly(cPent)][NMeD]-Morpholide; lactam N-11) | B (a compound having 3 or more and less than 10 is denoted as B) | C (A compound having a KD ratio of 0.1 or more and less than 3 is denoted as C)
2 | CCCN1C(=O)[C@@H]2CCN2C(=O)[C@H](C)N(C)C(=O)[C@H]([C@@H](C)CC)NC(=O)[C@H](CC(C)C)N(C)C(=O)C[C@@H](C(=O)N2CCOCC2)N(C)C(=O)[C@H](C2CCCC2)N(C)C(=O)C2(CCCC2)NC(=O)[C@H](C)NC(=O)[C@H](CCc2ccc(C(F)(F)F)c(Cl)c2)NC(=O)CN(C)C(=O)[C@@H]1Cc1ccc(C(F)(F)F)cc1 [PP0153] ([NMeL]I[NMeA][Aze][NPrPhe(4-CF3)][Sar][hPhe(3-Cl-4-CF3)]A[Ac5c][NMeGly(cPent)][NMeD]-Morpholide; lactam N-11) | C (A compound having a KD ratio of 0.1 or more and less than 3 is denoted as C) | C (A compound having a KD ratio of 0.1 or more and less than 3 is denoted as C)
3 | CCCN1C(=O)[C@@H]2CCN2C(=O)[C@H](C)N(C)C(=O)[C@H]([C@@H](C)CC)NC(=O)[C@H](CC(C)C)NC(=O)C[C@@H](C(=O)N2CCOCC2)N(C)C(=O)[C@H](C2CCCC2)N(C)C(=O)C2(CCCC2)NC(=O)[C@@H]2CCCN2C(=O)[C@H](CCc2ccc(C(F)(F)F)c(Cl)c2)NC(=O)CN(C)C(=O)[C@@H]1Cc1ccc(C(F)(F)F)cc1 [PP0154] (LI[NMeA][Aze][NPrPhe(4-CF3)][Sar][hPhe(3-Cl-4-CF3)]P[Ac5c][NMeGly(cPent)][NMeD]-Morpholide; lactam N-11) | B (a compound having 3 or more and less than 10 is denoted as B) | C (A compound having a KD ratio of 0.1 or more and less than 3 is denoted as C)
4 | CCCN1C(=O)CN(C)C(=O)CNC(=O)[C@H]([C@@H](C)CC)NC(=O)[C@H](CC(C)C)N(C)C(=O)C[C@@H](C(=O)N2CCOCC2)N(C)C(=O)[C@H](C2CCCC2)N(C)C(=O)C2(CCCC2)NC(=O)[C@@H]2CCCN2C(=O)[C@H](CCc2ccc(C(F)(F)F)c(Cl)c2)NC(=O)CN(C)C(=O)[C@@H]1Cc1ccc(C(F)(F)F)cc1 [PP0155] ([NMeL]IG[Sar][NPrPhe(4-CF3)][Sar][hPhe(3-Cl-4-CF3)]P[Ac5c][NMeGly(cPent)][NMeD]-Morpholide; lactam N-11) | C (A compound having a KD ratio of 0.1 or more and less than 3 is denoted as C) | B (a compound having 3 or more and less than 10 is denoted as B)
5 | CCCN1C(=O)[C@@H]2CCN2C(=O)CN(C)C(=O)[C@H]([C@@H](C)CC)NC(=O)[C@H](CC(C)C)N(C)C(=O)C[C@@H](C(=O)N2CCOCC2)N(C)C(=O)[C@H](C2CCCC2)N(C)C(=O)C2(CCCC2)NC(=O)[C@@H]2CCCN2C(=O)[C@H](CCc2ccc(C(F)(F)F)c(Cl)c2)NC(=O)CN(C)C(=O)[C@@H]1Cc1ccc(C(F)(F)F)cc1 [PP0156] ([NMeL]I[Sar][Aze][NPrPhe(4-CF3)][Sar][hPhe(3-Cl-4-CF3)]P[Ac5c][NMeGly(cPent)][NMeD]-Morpholide; lactam N-11) | B (a compound having 3 or more and less than 10 is denoted as B) | C (A compound having a KD ratio of 0.1 or more and less than 3 is denoted as C)
6 | CCCN1C(=O)CN(C)C(=O)[C@@H]2CCN2C(=O)[C@H]([C@@H](C)CC)NC(=O)[C@H](CC(C)C)N(C)C(=O)C[C@@H](C(=O)N2CCOCC2)N(C)C(=O)[C@H](C2CCCC2)N(C)C(=O)C2(CCCC2)NC(=O)[C@@H]2CCCN2C(=O)[C@H](CCc2ccc(C(F)(F)F)c(Cl)c2)NC(=O)CN(C)C(=O)[C@@H]1Cc1ccc(C(F)(F)F)cc1 [PP0158] ([NMeL]I[Aze][Sar][NPrPhe(4-CF3)][Sar][hPhe(3-Cl-4-CF3)]P[Ac5c][NMeGly(cPent)][NMeD]-Morpholide; lactam N-11) | B (a compound having 3 or more and less than 10 is denoted as B) | A (a compound having 10 or more and less than 20 is denoted as A)
7 | CCCN1C(=O)CN(C)C(=O)[C@@H]2CCCN2C(=O)[C@H]([C@@H](C)CC)NC(=O)[C@H](CC(C)C)N(C)C(=O)C[C@@H](C(=O)N2CCOCC2)N(C)C(=O)[C@H](C2CCCC2)N(C)C(=O)C2(CCCC2)NC(=O)[C@@H]2CCCN2C(=O)[C@H](CCc2ccc(C(F)(F)F)c(Cl)c2)NC(=O)CN(C)C(=O)[C@@H]1Cc1ccc(C(F)(F)F)cc1 [PP0165] ([NMeL]IP[Sar][NPrPhe(4-CF3)][Sar][hPhe(3-Cl-4-CF3)]P[Ac5c][NMeGly(cPent)][NMeD]-Morpholide; lactam N-11) | B (a compound having 3 or more and less than 10 is denoted as B) | B (a compound having 3 or more and less than 10 is denoted as B)
8 | CCCN1C(=O)[C@@H]2CCN2C(=O)[C@@H]2CCN2C(=O)[C@H]([C@@H](C)CC)NC(=O)[C@H](CC(C)C)N(C)C(=O)C[C@@H](C(=O)N2CCOCC2)N(C)C(=O)[C@H](C2CCCC2)N(C)C(=O)C2(CCCC2)NC(=O)[C@@H]2CCCN2C(=O)[C@H](CCc2ccc(C(F)(F)F)c(Cl)c2)NC(=O)CN(C)C(=O)[C@@H]1Cc1ccc(C(F)(F)F)cc1 [PP0168] ([NMeL]I[Aze][Aze][NPrPhe(4-CF3)][Sar][hPhe(3-Cl-4-CF3)]P[Ac5c][NMeGly(cPent)][NMeD]-Morpholide; lactam N-11) | B (a compound having 3 or more and less than 10 is denoted as B) | C (A compound having a KD ratio of 0.1 or more and less than 3 is denoted as C)
9 | CCCN1C(=O)CN(C)C(=O)CN(C)C(=O)[C@H]([C@@H](C)CC)NC(=O)[C@H](CC(C)C)N(C)C(=O)C[C@@H](C(=O)N(C)C)N(C)C(=O)[C@H](C2CCCC2)N(C)C(=O)C2(CCCC2)NC(=O)[C@@H]2CCCN2C(=O)[C@H](CCc2ccc(C(F)(F)F)c(Cl)c2)NC(=O)CN(C)C(=O)[C@@H]1Cc1ccc(C(F)(F)F)cc1 [PP0169] ([NMeL]I[Sar][Sar][NPrPhe(4-CF3)][Sar][hPhe(3-Cl-4-CF3)]P[Ac5c][NMeGly(cPent)][NMeD]-NMe2; lactam N-11) | B (a compound having 3 or more and less than 10 is denoted as B) | B (a compound having 3 or more and less than 10 is denoted as B)
10 | CCCN1C(=O)CN(C)C(=O)CN(C)C(=O)[C@H]([C@@H](C)CC)NC(=O)[C@H](CC(C)C)N(C)C(=O)C[C@@H](C(=O)N2CCCC2)N(C)C(=O)[C@H](C2CCCC2)N(C)C(=O)C2(CCCC2)NC(=O)[C@@H]2CCCN2C(=O)[C@H](CCc2ccc(C(F)(F)F)c(Cl)c2)NC(=O)CN(C)C(=O)[C@@H]1Cc1ccc(C(F)(F)F)cc1 [PP0170] ([NMeL]I[Sar][Sar][NPrPhe(4-CF3)][Sar][hPhe(3-Cl-4-CF3)]P[Ac5c][NMeGly(cPent)][NMeD]-Pyrrolidide; lactam N-11) | B (a compound having 3 or more and less than 10 is denoted as B) | B (a compound having 3 or more and less than 10 is denoted as B)
11 | CCCN1C(=O)CN(C)C(=O)CN(C)C(=O)[C@H]([C@@H](C)CC)NC(=O)[C@H](CC(C)C)N(C)C(=O)C[C@@H](C(=O)N2CCCCC2)N(C)C(=O)[C@H](C2CCCC2)N(C)C(=O)C2(CCCC2)NC(=O)[C@@H]2CCCN2C(=O)[C@H](CCc2ccc(C(F)(F)F)c(Cl)c2)NC(=O)CN(C)C(=O)[C@@H]1Cc1ccc(C(F)(F)F)cc1 [PP0171] ([NMeL]I[Sar][Sar][NPrPhe(4-CF3)][Sar][hPhe(3-Cl-4-CF3)]P[Ac5c][NMeGly(cPent)][NMeD]-Piperidide; lactam N-11) | C (A compound having a KD ratio of 0.1 or more and less than 3 is denoted as C) | B (a compound having 3 or more and less than 10 is denoted as B)
12 | CCCN1C(=O)CN(C)C(=O)CN(C)C(=O)[C@H]([C@@H](C)CC)NC(=O)[C@H](CC(C)C)N(C)C(=O)C[C@@H](C(=O)N2CCC2)N(C)C(=O)[C@H](C2CCCC2)N(C)C(=O)C2(CCCC2)NC(=O)[C@@H]2CCCN2C(=O)[C@H](CCc2ccc(C(F)(F)F)c(Cl)c2)NC(=O)CN(C)C(=O)[C@@H]1Cc1ccc(C(F)(F)F)cc1 [PP0172] ([NMeL]I[Sar][Sar][NPrPhe(4-CF3)][Sar][hPhe(3-Cl-4-CF3)]P[Ac5c][NMeGly(cPent)][NMeD]-{Azetidin(1-yl)}; lactam N-11) | C (A compound having a KD ratio of 0.1 or more and less than 3 is denoted as C) | B (a compound having 3 or more and less than 10 is denoted as B)
